Earlier results, collected in paper PMC7426938, “Induction of mitochondria-mediated apoptosis and suppression of tumor growth in zebrafish xenograft model by cyclic dipeptides identified from Exiguobacterium acetylicum” (Scientific Reports, 2020).
Values after ≈ are worked out from the molar mass of the structure shown.

Legend:
HT-29 cells [1] = test system: HT-29 cells; design: method as in PMID 15274345; details: read-out: dose giving 50% growth inhibition; cited from earlier work
HeLa cells = test system: HeLa cells; design: method as in PMID 15274345; details: read-out: dose giving 50% growth inhibition; cited from earlier work
MCF-7 cells = test system: MCF-7 cells; design: method as in PMID 15274345; details: read-out: dose giving 50% growth inhibition; cited from earlier work
HL-60 cells = test system: HL-60 cells; design: method as in PMID 29211005, PMID 10052845; details: cited from earlier work
HT-29 cells [2] = test system: HT-29 cells; design: method as in PMID 29211005, PMID 10052845; details: cited from earlier work

Row | SMILES | IC50 (HT-29 cells [1]) [mM] | IC50 (HeLa cells) [mM] | IC50 (MCF-7 cells) [mM] | IC50, anti-proliferative effect (HL-60 cells) [µg/mL] | IC50, anti-proliferative effect (HT-29 cells [2]) [µg/mL]
1 | O=C1NC(Cc2ccccc2)C(=O)N2CCCC12 (centres unmarked) [cyclo (Phe-Pro)] | < 7 | < 7 | < 7 |  | 
2 | O=C1NC(Cc2ccc(O)cc2)C(=O)N2CCCC12 (centres unmarked) [cyclo (Tyr-Pro)] | < 7 | < 7 | < 7 |  | 
3 | CC(C)C[C@@H]1NC(=O)[C@H](NC(=O)c2cccc(O)c2O)CCCNC1=O [petrocidin-A] |  |  |  | 3.9 (≈ 10.7 µM) | 5.3 (≈ 14.6 µM)
